Where two headings read alike, the source gives them in different places.
Assays:
[1] = test system: IL-2 stimulated pSTAT5 in Tall-1 T cells; assay: Cellular JAK3 potency assay: inhibition of IL-2 stimulated pSTAT5 in Tall-1 T cells; type: cell-based, human; settings: for IC50: Homo sapiens, read-out: Tall-1 (pIC50) (converted)
Method: The potency of test compounds for inhibition of interleukin-2 (IL-2) stimulated STAT5 phosphorylation was measured in the Tall-1 human T cell line (DSMZ) using AlphaLisa. Because IL-2 signals through JAK3, this assay provides a measure of JAK3 cellular potency.
Compounds were serially diluted in DMSO and dispensed acoustically to empty wells. Assay media (phenol red-free DMEM (Life Technologies) supplemented with 10% FBS (ATCC)) was dispensed (4 μL/well) and plates shaken at 900 rpm for 10 mins. Cells were seeded at 45,000 cells/well in assay media (4 μL/well), and incubated at 37° C., 5% CO2 for 1 hour, followed by the addition of IL-2 (R&D Systems; final concentration 300 ng/ml) in pre-warmed assay media (4 μL) for 30 minutes. After cytokine stimulation, cells were lysed with 6 ul of 3× AlphaLisa Lysis Buffer (PerkinElmer) containing 1× PhosStop and Complete tablets (Roche). The lysate was shaken at 900 rpm for 10 minutes at room temperature (RT). Phosphorylated STAT5 was measured via the pSTAT5 AlphaLisa kit (PerkinElmer). Freshly prepared acceptor bead mixture was dispensed onto lysate (5 μL) under green filtered <100 lux light. Plates were shaken at 900 rpm for 2 mins, briefly spun down, and incubated for 2 hrs at RT in the dark. Donor beads were dispensed (5 μL) under green filtered <100 lux light. Plates were shaken at 900 rpm for 2 minutes, briefly spun down, and incubated overnight at RT in the dark.
To determine the inhibitory potency of test compounds in response to IL-2, the average emission intensity of beads bound to pSTAT5 was measured in a human T cell line. IC50 values were determined from analysis of the inhibition curves of signal intensity versus compound concentration. Data are expressed as pIC50 (negative decadic logarithm IC50) values (mean±standard deviation).

JAK3 = target: T1, JAK3 (Homo sapiens, UniProt P52333); assay: Biochemical JAK3 kinase assay (LanthaScreen); design: GST; purchased Life Technologies; settings: for Ki: read-out: JAK 3 (pKi) (converted)
T1 sequence (P52333 1-1124): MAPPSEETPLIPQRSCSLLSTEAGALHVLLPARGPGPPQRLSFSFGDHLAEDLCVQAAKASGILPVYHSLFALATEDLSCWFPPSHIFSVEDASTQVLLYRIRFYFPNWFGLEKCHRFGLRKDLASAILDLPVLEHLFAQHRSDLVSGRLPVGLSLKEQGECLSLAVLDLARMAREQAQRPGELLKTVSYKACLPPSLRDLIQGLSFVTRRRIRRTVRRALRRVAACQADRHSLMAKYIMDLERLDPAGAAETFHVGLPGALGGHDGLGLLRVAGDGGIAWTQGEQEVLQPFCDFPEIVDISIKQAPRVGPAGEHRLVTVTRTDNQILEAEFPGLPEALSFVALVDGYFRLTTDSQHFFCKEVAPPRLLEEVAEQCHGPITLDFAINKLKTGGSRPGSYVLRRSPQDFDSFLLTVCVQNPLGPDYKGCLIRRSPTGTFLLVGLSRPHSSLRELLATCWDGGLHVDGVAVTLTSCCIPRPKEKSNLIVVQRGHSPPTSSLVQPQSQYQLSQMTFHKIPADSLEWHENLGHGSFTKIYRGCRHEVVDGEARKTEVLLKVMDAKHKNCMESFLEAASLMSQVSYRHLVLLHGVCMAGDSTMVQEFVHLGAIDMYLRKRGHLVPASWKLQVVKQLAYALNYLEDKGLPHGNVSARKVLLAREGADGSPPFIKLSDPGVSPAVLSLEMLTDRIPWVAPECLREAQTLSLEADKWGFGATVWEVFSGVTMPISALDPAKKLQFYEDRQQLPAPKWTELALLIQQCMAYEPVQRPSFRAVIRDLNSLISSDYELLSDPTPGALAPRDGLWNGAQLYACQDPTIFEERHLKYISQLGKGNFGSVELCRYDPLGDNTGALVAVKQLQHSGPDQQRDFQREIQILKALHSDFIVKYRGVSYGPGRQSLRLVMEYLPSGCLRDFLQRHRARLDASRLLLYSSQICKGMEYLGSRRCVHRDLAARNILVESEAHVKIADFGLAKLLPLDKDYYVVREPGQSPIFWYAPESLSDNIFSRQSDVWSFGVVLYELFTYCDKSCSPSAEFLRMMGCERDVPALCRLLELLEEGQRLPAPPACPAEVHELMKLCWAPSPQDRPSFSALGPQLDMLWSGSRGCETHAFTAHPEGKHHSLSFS
Method: (§1) A panel of four LanthaScreen JAK biochemical assays (JAK1, 2, 3 and Tyk2) were carried in a common kinase reaction buffer (50 mM HEPES, pH 7.5, 0.01% Brij-35, 10 mM MgCl2, and 1 mM EGTA). Recombinant GST-tagged JAK enzymes and a GFP-tagged STAT1 peptide substrate were obtained from Life Technologies.
(§2) Serially or discretely diluted compounds were pre-incubated with each of the four JAK enzymes and the substrate in white 384-well microplates (Corning) at ambient temperature for 1 h. ATP was subsequently added to initiate the kinase reactions in 10 μL total volume, with 1% DMSO. […] Kinase reactions were allowed to proceed for 1 hour at ambient temperature before a 10 μL preparation of EDTA (10 mM final concentration) and Tb-anti-pSTAT1 (pTyr701) antibody (Life Technologies, 2 nM final concentration) in TR-FRET dilution buffer (Life Technologies) was added. The plates were allowed to incubate at ambient temperature for 1 h before being read on the EnVision reader (Perkin Elmer). Emission ratio signals (520 nm/495 nm) were recorded and utilized to calculate the percent inhibition values based on DMSO and background controls.
(§3) For dose-response analysis, percent inhibition data were plotted vs. compound concentrations, and IC50 values were determined from a 4-parameter robust fit model with the Prism software (GraphPad Software). Results were expressed as pIC50 (negative logarithm of IC50) and subsequently converted to pKi (negative logarithm of dissociation constant, Ki) using the Cheng-Prusoff equation.

JAK1 = target: T2, JAK1 (Homo sapiens, UniProt P23458); assay: Biochemical JAK1 kinase assay (LanthaScreen); settings: for Ki: read-out: JAK 1 (pKi) (converted)
T2 construct: GST; purchased Life Technologies
Method: as §1, §2, §3

[2] = TALL-1, IL-2 stimulated pSTAT5, Tall-1 T cells
[3] = selectivity JAK3 over JAK1, difference of pKi
[4] = TALL-1, IL-2 stimulated pSTAT5 in Tall-1 T cells
[5] = selectivity: difference of pKi JAK3 and pKi JAK1
[6] = IL-2 stimulated pSTAT5 in Tall-1 T cells
[7] = IL-2 stimulated pSTAT5, Tall-1 T cells

T2 sequence (P23458 whole entry): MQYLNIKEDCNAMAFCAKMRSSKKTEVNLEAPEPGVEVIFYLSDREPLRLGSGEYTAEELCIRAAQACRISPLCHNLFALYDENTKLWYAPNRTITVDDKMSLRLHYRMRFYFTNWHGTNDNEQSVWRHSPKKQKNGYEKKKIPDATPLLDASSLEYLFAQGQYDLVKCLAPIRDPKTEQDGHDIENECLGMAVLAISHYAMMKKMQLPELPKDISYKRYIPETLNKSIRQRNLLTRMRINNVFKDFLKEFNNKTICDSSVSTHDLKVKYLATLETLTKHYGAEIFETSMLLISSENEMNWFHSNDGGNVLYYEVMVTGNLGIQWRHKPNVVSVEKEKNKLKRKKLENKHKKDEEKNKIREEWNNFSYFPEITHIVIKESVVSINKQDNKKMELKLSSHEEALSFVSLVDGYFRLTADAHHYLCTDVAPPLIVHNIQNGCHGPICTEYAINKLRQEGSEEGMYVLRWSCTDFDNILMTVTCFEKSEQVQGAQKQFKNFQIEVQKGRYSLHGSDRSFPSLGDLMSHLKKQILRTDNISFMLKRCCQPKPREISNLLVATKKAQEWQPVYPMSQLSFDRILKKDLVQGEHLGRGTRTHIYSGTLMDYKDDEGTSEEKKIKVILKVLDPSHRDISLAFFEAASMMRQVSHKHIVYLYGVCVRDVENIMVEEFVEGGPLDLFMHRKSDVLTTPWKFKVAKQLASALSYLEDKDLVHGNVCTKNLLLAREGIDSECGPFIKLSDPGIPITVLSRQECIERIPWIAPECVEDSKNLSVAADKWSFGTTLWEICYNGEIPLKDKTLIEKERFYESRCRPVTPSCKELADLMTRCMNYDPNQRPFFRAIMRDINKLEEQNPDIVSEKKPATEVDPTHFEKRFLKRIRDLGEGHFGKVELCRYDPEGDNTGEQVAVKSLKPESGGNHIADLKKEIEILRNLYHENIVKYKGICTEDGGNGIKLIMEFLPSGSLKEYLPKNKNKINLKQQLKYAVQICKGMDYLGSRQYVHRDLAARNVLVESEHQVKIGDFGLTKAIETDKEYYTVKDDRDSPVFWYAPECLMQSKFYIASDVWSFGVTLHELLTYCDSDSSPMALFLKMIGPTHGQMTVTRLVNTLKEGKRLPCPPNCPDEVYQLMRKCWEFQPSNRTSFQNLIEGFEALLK

Row | Structure (SMILES) | IC50 [1, 2] | Ki (JAK3) | JAK3 (pKi)-JAK1 (pKi) (JAK3; [3]) | Ki (JAK1) | IC50 [1, 4] | JAK3 (pKi)-JAK1 (pKi) (JAK3; [5]) | Tall-1 (pIC50) [1, 6] | JAK 3 (pKi) (JAK3) | JAK 1 (pKi) (JAK1) | Tall-1 (pIC50) [1, 7]
1 | CN(C)C/C=C/C(=O)N1CC(COc2cc(-c3c(F)cc(O)cc3F)cc3[nH]ncc23)C1 [Compound 18-2] | < 31.6 nM | < 0.1 nM | C (a value of 1.8 to 2.3) | 10 to 100 nM | – | – | – | – | – | –
2 | CN(C)C/C=C/C(=O)N1CC(C)(COc2cc(-c3ccc(O)c(Cl)c3)cc3[nH]ncc23)C1 [Compound 3-9] | – | 0.1 to 1 nM | – | > 100 nM | 31.6 to 200 nM | B (a value of 2.3 to 3) | – | – | – | –
3 | CN(C)C/C=C/C(=O)N1CC[C@H](COc2cc(-c3ccc(O)c(F)c3)cc3[nH]ncc23)C1 [Compound 2-4] | – | – | – | – | – | B (a value of 2.3 to 3) | C (a pIC50 value between 6 and 6.7 (IC50 between 1 μM and 200 nM)) | B (a pKi value between 9 and 10 (Ki between 1 nM and 0.1 nM)) | E (a pKi value of 7 or below (Ki of 100 nM or above)) | –
4 | CN(C)C/C=C/C(=O)N1CCC[C@H](Sc2cc(-c3ccc(O)cc3)cc3[nH]ncc23)C1 [Compound 12-7] | 200 to 1000 nM | 0.1 to 1 nM | C (a value of 1.8 to 2.3) | 10 to 100 nM | – | – | – | – | – | –
5 | CN(C)C/C=C/C(=O)N1CC2(CC(Oc3cc(-c4ccc(O)c(Cl)c4)cc4[nH]ncc34)C2)C1 [Compound 15-4] | – | – | A (a value of 3 or above) | – | – | – | – | A (a pKi value≥10 (Ki≤0.1 nM)) | E (a pKi value of 7 or below (Ki of 100 nM or above)) | B (a pIC50 value between 6.7 (included) and 7.5 (IC50 between 200 nM and 32 nM))
6 | C=CC(=O)N1CC[C@H](Oc2cc(-c3ccc(O)cc3)nc3[nH]ncc23)C1 [Compound 1-9] | – | – | – | – | – | A (a value of 3 or above) | C (a pIC50 value between 6 and 6.7 (IC50 between 1 μM and 200 nM)) | A (a pKi value≥10 (Ki≤0.1 nM)) | E (a pKi value of 7 or below (Ki of 100 nM or above)) | –
7 | C=CC(=O)N1C2CCC1CC(Oc1nc(-c3ccc(O)cc3)cc3[nH]ncc13)C2 (stereo not drawn) [Compound 9-6] | – | – | A (a value of 3 or above) | – | – | – | – | B (a pKi value between 9 and 10 (Ki between 1 nM and 0.1 nM)) | E (a pKi value of 7 or below (Ki of 100 nM or above)) | A (a pIC50 value≥7.5 (IC50≤32 nM))
8 | C=CC(=O)N1CCC[C@H](Sc2cc(-c3ccc(O)cc3)cc3[nH]ncc23)C1 [Compound 12-6] | 31.6 to 200 nM | 0.1 to 1 nM | B (a value of 2.3 to 3) | 10 to 100 nM | – | – | – | – | – | –
9 | C=CC(=O)N1CCCC(Oc2cc(-c3ccc(O)cc3)nc3[nH]ncc23)C1 (stereo not drawn) [Compound 8-6] | – | – | A (a value of 3 or above) | – | – | – | – | B (a pKi value between 9 and 10 (Ki between 1 nM and 0.1 nM)) | E (a pKi value of 7 or below (Ki of 100 nM or above)) | B (a pIC50 value between 6.7 (included) and 7.5 (IC50 between 200 nM and 32 nM))
10 | C=CC(=O)N1CC[C@H](Oc2nc(-c3ccc(O)cc3)nc3[nH]ncc23)C1 [Compound 1-6] | – | 0.1 to 1 nM | – | > 100 nM | 200 to 1000 nM | A (a value of 3 or above) | – | – | – | –
11 | C=CC(=O)N1CC[C@H]1C(=O)Nc1cc(-c2ccc(O)cc2)cc2[nH]ncc12 [Compound 12-69] | 31.6 to 200 nM | < 0.1 nM | A (a value of 3 or above) | > 100 nM | – | – | – | – | – | –
12 | C=CC(=O)N1C2CCC1CC(Oc1cc(-c3ccc(O)c(F)c3)cc3[nH]ncc13)C2 (stereo not drawn) [Compound 10-6] | – | – | B (a value of 2.3 to 3) | – | – | – | – | B (a pKi value between 9 and 10 (Ki between 1 nM and 0.1 nM)) | D (a pKi value between 7 and 8 (Ki between 100 nM and 10 nM)) | A (a pIC50 value≥7.5 (IC50≤32 nM))
13 | C=CC(=O)N1CC(C(C)(C)Oc2cc(-c3ccc(O)cc3)cc3[nH]ncc23)C1 [Compound 3-25] | – | – | – | – | – | B (a value of 2.3 to 3) | B (a pIC50 value between 6.7 (included) and 7.5 (IC50 between 200 nM and 32 nM)) | C (a pKi value between 8 and 9 (Ki between 10 nM and 1 nM)) | E (a pKi value of 7 or below (Ki of 100 nM or above)) | –
14 | CN(C)C/C=C/C(=O)N1CC[C@H](Oc2nc(-c3ccc(O)c(F)c3)cc3[nH]ncc23)C1 [Compound 1-28] | – | 0.1 to 1 nM | – | > 100 nM | 200 to 1000 nM | B (a value of 2.3 to 3) | – | – | – | –
15 | C=CC(=O)N1CC(C)(Oc2cc(-c3ccc(O)c(F)c3)cc3[nH]ncc23)C1 [Compound 5-24] | – | – | A (a value of 3 or above) | – | – | – | – | B (a pKi value between 9 and 10 (Ki between 1 nM and 0.1 nM)) | E (a pKi value of 7 or below (Ki of 100 nM or above)) | B (a pIC50 value between 6.7 (included) and 7.5 (IC50 between 200 nM and 32 nM))

— patent US10392368B2, “Pyrazolo and triazolo bicyclic compounds as JAK kinase inhibitors” (THERAVANCE BIOPHARMA R&D IP, LLC, priority 2017, dated 2019)
